Experimental data taken from patent US11911386B2, “Methods of treating B-cell proliferative disorder” (BeiGene Switzerland GmbH, priority 2022, dated 2024).
Where “and” joins values, the source holds several entries; their conditions need not be identical. Equal values may be shown once.

Test: Phase 2 (NCT04116437): recurrence and change in severity of ibrutinib/acalabrutinib intolerance events on zanubrutinib
Type: in vivo, human
Excerpt: The primary endpoints were the recurrence and the change in severity of ibrutinib and acalabrutinib intolerance events compared with corresponding treatment-emergent adverse events within each patient. In this document, the term “adverse event” refers to a “treatment-emergent adverse event” unless otherwise stated. Hereafter, the full “treatment-emergent adverse event” was not used.
Intolerance was defined as an unacceptable toxicity such that treatment should be discontinued per investigator opinion despite optimal supportive care.
If while on zanubrutinib a patient experienced the same adverse event that led to their intolerance to ibrutinib, the patient was said to experience a recurrence of an ibrutinib intolerant event. […] Otherwise, the severity was said to be the same. For acalabrutinib intolerant events, recurrence and change in severity were defined similarly.
Primary endpoint was the recurrence and change in severity of intolerance events per protocol.
The study design comprised two cohorts. […] Patients were not allowed to switch schedule during the study.

Structure (SMILES): C=CC(=O)N1CCC([C@@H]2CCNc3c(C(N)=O)c(-c4ccc(Oc5ccccc5)cc4)nn32)CC1 [zanubrutinib, (S)-7-(1-acryloylpiperidin-4-yl)-2-(4-phenoxyphenyl)-4,5,6,7-tetrahydropyrazolo[1,5-a]pyrimidine-3-carboxamide]
- Patients with acalabrutinib-intolerance event recurrence who discontinued zanubrutinib (3 patients): 66.7%
- Recurring acalabrutinib-intolerance events at lower severity (3 recurring events): 33.3% and 33.0%
- Recurring acalabrutinib-intolerance events at same severity (3 recurring events): 66.6% and 66.7%
- Grade 3 acalabrutinib-intolerance events that recurred (4 grade 3 events): 25.0%
- Patients without recurrence of acalabrutinib-intolerance events (10 patients): 70.0%
- Recurring grade 3 ibrutinib-intolerance events at lower severity (13 events): 92.3%
- Recurring grade 3 ibrutinib-intolerance events at same severity (13 events): 7.7%
- Acalabrutinib-intolerance events that did not recur (18 events): 83.3%
- Acalabrutinib-intolerance events that recurred: arthralgia (18 events): 5.6%
- Acalabrutinib-intolerance events that recurred: myalgia (18 events): 11.1%
- Patients with recurrent ibrutinib-intolerance event who discontinued zanubrutinib (25 patients): 24.0%
- Recurring ibrutinib-intolerance events at lower severity (34 recurring events): 79.4%
- Recurring ibrutinib-intolerance events at same severity (34 recurring events): 20.6%
- Grade 3 ibrutinib-intolerance events that recurred (38 grade 3 events): 34.2%
- Patients without recurrence of ibrutinib-intolerance event (62 patients): 59.7%
- Ibrutinib-intolerance events that did not recur (115 events): 70.4%
- Intolerance events that did not recur (141 intolerance events): 68.1%
- Patients with reoccurrence of previously intolerant adverse event(s) (all patients): 44.4%
- Patients without any recurrence of intolerance event(s) (all patients (clinical study report cut-off)): 56.6%
- Median time to first recurrence of ibrutinib-intolerance event (in vivo): 61 days
